What was measured:
[1] = Antiinflammatory activity in NMRI mouse macrophages assessed as inhibition of A23187-induced PGE2 release at 100 uM by Ellman's method relative to control; format: functional; settings: Macrophage
[2] = Antiinflammatory activity in NMRI mouse macrophages assessed as inhibition of A23187-induced LTC4 release at 25 uM by Ellman's method relative to control; format: functional; settings: Macrophage
[3] = Antiinflammatory activity in NMRI mouse macrophages assessed as inhibition of A23187-induced PGE2 release by Ellman's method; format: functional, cell-based; settings: macrophage
[4] = Antiinflammatory activity in NMRI mouse macrophages assessed as inhibition of A23187-induced LTC4 release by Ellman's method; format: functional, cell-based; settings: macrophage
[5] = Antiinflammatory activity in NMRI mouse macrophages assessed as inhibition of A23187-induced LTC4 release at 100 uM by Ellman's method relative to control; format: functional; settings: Macrophage

SMILES | IC50 [3] [µmol] | IC50 [4] [µmol] | inhibition at 100 µM [1] [%] | inhibition at 25 µM [2] [%] | inhibition at 100 µM [5] [%]
COc1ccc2ccc(=O)oc2c1 [HERNIARIN] | 84 | – | 65.7 | 2.94 | –
COc1cc2ccc(=O)oc2cc1O[C@@H]1O[C@H](CO)[C@@H](O)[C@H](O)[C@H]1O [SCOPOLIN] | 77 | – | 75.7 | 55 | –
O=c1ccc2cc(O)c(O)cc2o1 [ESCULETIN] | 11 | 18 | 71.7 | 71.2 | –

More lines, main results first:

IC50 [3] [µmol] | IC50 [4] [µmol] | SMILES | inhibition at 100 µM [1] [%] | inhibition at 25 µM [2] [%] | inhibition at 100 µM [5] [%]
5 | – | COc1cc2ccc(=O)oc2cc1O [SCOPOLETIN] | 77.4 | 8.8 | –
22 | – | COc1ccc2c(c1)c(CC(=O)O)c(C)n2C(=O)c1ccc(Cl)cc1 [INDOMETHACIN] | 78.1 | – | –
– | 6 | CC(Cc1ccc(O)c(O)c1)C(C)Cc1ccc(O)c(O)c1 (configuration not stated) [NORDIHYDROGUAIARETIC ACID] | – | – | 78.7

Reference: ChEMBL document CHEMBL1158288, “Antiinflammatory activity of coumarins from Santolina oblongifolia” (J Nat Prod, 1996)
